The experiment addresses T1, CD45 (Homo sapiens, UniProt P08575).
T1 sequence (P08575 599-1306 limits assumed): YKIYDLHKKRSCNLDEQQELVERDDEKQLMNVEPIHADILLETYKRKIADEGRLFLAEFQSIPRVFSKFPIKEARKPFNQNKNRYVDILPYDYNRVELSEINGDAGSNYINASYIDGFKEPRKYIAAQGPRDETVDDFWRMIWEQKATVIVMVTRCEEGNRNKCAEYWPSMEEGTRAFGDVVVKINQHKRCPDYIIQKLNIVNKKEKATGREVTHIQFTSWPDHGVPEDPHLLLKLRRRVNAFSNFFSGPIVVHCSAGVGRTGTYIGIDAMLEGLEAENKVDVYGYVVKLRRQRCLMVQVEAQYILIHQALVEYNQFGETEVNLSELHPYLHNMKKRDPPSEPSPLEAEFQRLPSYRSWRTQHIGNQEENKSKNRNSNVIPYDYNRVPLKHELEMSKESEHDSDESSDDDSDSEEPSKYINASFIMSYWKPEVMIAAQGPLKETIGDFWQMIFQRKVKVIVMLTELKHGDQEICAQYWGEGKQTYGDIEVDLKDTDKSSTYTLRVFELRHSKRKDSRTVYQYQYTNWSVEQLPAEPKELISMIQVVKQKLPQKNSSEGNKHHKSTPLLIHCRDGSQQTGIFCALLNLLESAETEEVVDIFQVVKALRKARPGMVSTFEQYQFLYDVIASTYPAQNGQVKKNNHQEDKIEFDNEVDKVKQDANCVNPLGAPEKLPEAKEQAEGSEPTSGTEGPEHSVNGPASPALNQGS
Description: PTPase inhibition, p-nitrophenyl phosphate substrate, Ki. Conditions: pH 7.0 (Table 5); read-out: Ki values, CD45. The class given is biochemical.

Experimental findings from patent publication US7115624B1, “Method of inhibiting protein tyrosine phosphatase 1B and/or T-cell protein tyrosine phosphatase 4 and/or other PTPases with an Asp residue at position 48” (Novo Nordisk A/S, priority 1999, dated 2006) are described below.

Description: The assay conditions are as follows. Appropriate concentrations of the compounds of the invention (e.g., 0.1 to 100 μM) are added to the reaction mixtures containing different concentrations of the substrate, p-nitrophenyl phosphate (range: 0.16 to 10 mM—final assay concentration). The buffer used was 50 mM HEPES pH 7.0, 100 mM sodium chloride, 0.1% (w/v) bovine serum albumin, 5 mM glutathione, and 1 mM EDTA. The reaction was started by addition of the enzyme and carried out in microtiter plates at 25° C. for 60 minutes. The reactions are stopped by addition of NaOH. […] The data are analyzed using nonlinear regression fit to classical Michaelis Menten enzyme kinetic models. Inhibition is expressed as Ki values in μM.

Broadly, the Ki is a dissociation constant, usually derived from enzyme kinetics or from competition with a known ligand. `O=C(O)C(=O)Nc1sc2c(c1C(=O)O)CCOC2COC1=NS(=O)(=O)c2ccccc21` (stereo not shown) [Compound N, 7-(1,1-dioxo-1H-benzo[d]isothiazol-3-yloxymethyl)-2-(oxalyl-amino)-4,7-dihyd ro-5H-thieno[2,3-c]pyran-3-carboxylic acid]: the Ki turned out to be 500 µM.
